PubChem BioAssay (NCI)
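Results reflect a 48-hour exposure of cells in 96-well plates to compound at five concentrations. GI50 is the concentration that inhibits growth by half. TGI: total growth inhibition.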

Assays:
Assay in all cases: DTP human tumour cell line panel, 48 h
SNB-19 CNS = system: SNB-19 CNS
NCI-H460 lung = system: NCI-H460 lung
SK-OV-3 ovarian = system: SK-OV-3 ovarian
A498 renal = system: A498 renal
NCI-H522 lung = system: NCI-H522 lung
KM12 colon = system: KM12 colon
OVCAR-5 ovarian = system: OVCAR-5 ovarian
CCRF-CEM leukemia = system: CCRF-CEM leukemia
HCC-2998 colon = system: HCC-2998 colon
HT29 colon = system: HT29 colon
HL-60(TB) leukemia = system: HL-60(TB) leukemia
M14 melanoma = system: M14 melanoma
LOX IMVI melanoma = system: LOX IMVI melanoma
MDA-MB-231 breast = system: MDA-MB-231 breast
UO-31 renal = system: UO-31 renal
NCI/ADR-RES ovarian = system: NCI/ADR-RES ovarian
786-0 renal = system: 786-0 renal
K-562 leukemia = system: K-562 leukemia
NCI-H226 lung = system: NCI-H226 lung
HS 578T breast = system: HS 578T breast
A549 NSCLC = system: A549 NSCLC
UACC-257 melanoma = system: UACC-257 melanoma
MDA-MB-435 = system: MDA-MB-435
IGROV1 ovarian = system: IGROV1 ovarian
SNB-75 CNS = system: SNB-75 CNS
SN12C renal = system: SN12C renal
SF-539 CNS = system: SF-539 CNS
SK-MEL-5 melanoma = system: SK-MEL-5 melanoma

`COc1ccc(-c2cc(-c3nnc(SCC(=O)Nc4ccc(C(C)=O)cc4)o3)c3ccccc3n2)cc1` was tested, and the TGI (SNB-19 CNS) was > 100 µM, the GI50 (NCI-H460 lung) was > 100 µM and the TGI (NCI-H460 lung) was > 100 µM. It also gave a GI50 (SK-OV-3 ovarian) of 27 µM, a TGI (SK-OV-3 ovarian) of 91.6 µM and a GI50 (A498 renal) of 24.8 µM. For the same molecule, the TGI (A498 renal) was 72.7 µM, the GI50 (NCI-H522 lung) was 30.2 µM and the TGI (NCI-H522 lung) was > 100 µM. The GI50 (KM12 colon) was > 100 µM, the TGI (KM12 colon) was > 100 µM and the GI50 (OVCAR-5 ovarian) was > 100 µM. The TGI (OVCAR-5 ovarian) was > 100 µM, the GI50 (CCRF-CEM leukemia) was > 100 µM and the TGI (CCRF-CEM leukemia) was > 100 µM. For the same molecule, the GI50 (HCC-2998 colon) was > 100 µM, the TGI (HCC-2998 colon) was > 100 µM and the GI50 (HT29 colon) was > 100 µM. The TGI (HT29 colon) was > 100 µM, the GI50 (HL-60(TB) leukemia) was > 100 µM and the TGI (HL-60(TB) leukemia) was > 100 µM. The GI50 (M14 melanoma) was > 100 µM, the TGI (M14 melanoma) was > 100 µM and the GI50 (LOX IMVI melanoma) was 73.7 µM. For the same molecule, the TGI (LOX IMVI melanoma) was > 100 µM, the GI50 (MDA-MB-231 breast) was 19.4 µM and the TGI (MDA-MB-231 breast) was > 100 µM. For the same molecule, the GI50 (UO-31 renal) was > 100 µM, the TGI (UO-31 renal) was > 100 µM and the GI50 (NCI/ADR-RES ovarian) was > 100 µM. The TGI (NCI/ADR-RES ovarian) was > 100 µM, the GI50 (786-0 renal) was 1940 nM and the TGI (786-0 renal) was 4.95 µM. For the same molecule, the GI50 (K-562 leukemia) was > 100 µM, the TGI (K-562 leukemia) was > 100 µM and the GI50 (NCI-H226 lung) was 43.6 µM. The TGI (NCI-H226 lung) was > 100 µM, the GI50 (HS 578T breast) was 14.2 µM and the TGI (HS 578T breast) was 92.3 µM. The GI50 (A549 NSCLC) was > 100 µM, the TGI (A549 NSCLC) was > 100 µM and the GI50 (UACC-257 melanoma) was > 100 µM. The TGI (UACC-257 melanoma) was > 100 µM, the GI50 (MDA-MB-435) was > 100 µM and the TGI (MDA-MB-435) was > 100 µM. For the same molecule, the GI50 (IGROV1 ovarian) was 20.2 µM, the TGI (IGROV1 ovarian) was > 100 µM and the GI50 (SNB-75 CNS) was 3.65 µM. The TGI (SNB-75 CNS) was 22.6 µM, the GI50 (SN12C renal) was > 100 µM and the TGI (SN12C renal) was > 100 µM. The GI50 (SF-539 CNS) was 33.9 µM, the TGI (SF-539 CNS) was > 100 µM and the GI50 (SK-MEL-5 melanoma) was > 100 µM. The TGI (SK-MEL-5 melanoma) was > 100 µM.
